≈ marks a conversion by molar mass, not a printed value. Like-named read-outs stand apart in the source and are kept apart here. Where a SMILES comes first, the peptide text is derived from it. [ ]: non-standard residue; d: D form. The star is where a group is joined. Cha = N[C@@H](CC1CCCCC1)C(=O)O; Heptanoyl = CCCCCCC(=O)*; Octanoyl = CCCCCCCC(=O)*; Dab = NCC[C@H](N)C(=O)O
Key:
[1] = test system: Acinetobacter baumannii ATCC 19606; assay type: cell-based; details: ATCC 19606
[2] = test system: Escherichia coli ATCC 25922; assay type: cell-based; details: ATCC 25922
Method: (§4) The minimum inhibitory concentration (MIC) of paenipeptin analogues was determined using the broth microdilution method (Wirker, M. A. Methods for Dilution Antimicrobial Susceptibility Tests for Bacteria that Grow Aerobically: Approved Standard M07-A8; Clinical and Laboratory Standards Institute, Wayne, Pa., 2009). Seven reference strains (Acinetobacter baumannii ATCC 19606, Escherichia coli ATCC 25922, Klebsiella pneumoniae ATCC 13883, Pseudomonas aeruginosa ATCC 27853, Enterococcus faecium ATCC 19434, Staphylococcus aureus ATCC 29213 and methicillin-resistant S. aureus ATCC 43300) were subjected to MIC testing.
(§5) Paenipeptin analogues were two-fold diluted in tryptic soy broth (TSB; Becton Dickinson) and mixed with an equal volume of bacterial suspensions in TSB containing approximately 1.5×10^5 colony-forming units (CFU)/mL in a clear UV-sterilized 96-well microtiter plate (NBS, Corning Inc., Corning, N.Y.). […] The microtiter plate was incubated at 37° C. for 18-20 h.

[3] = test system: Pseudomonas aeruginosa ATCC 27853; assay type: cell-based; details: ATCC 27853
Method: as §4, §5

[4] = test system: Enterococcus faecium ATCC 19434; assay type: cell-based; details: ATCC 19434
[5] = test system: Staphylococcus aureus ATCC 29213; assay type: cell-based; details: ATCC 29213
P. aeruginosa ATCC 27853 = assay type: cell-based, Pseudomonas aeruginosa
Source text: (§1) The surviving cells from each antimicrobial concentration with no visible growth were enumerated by plating on tryptic soy agar (TSA). MBC was defined as the lowest concentration of the antimicrobial agent that led to at least a 99.9% reduction in the number of viable bacterial cells relative to the initial inoculum. There were three independent experiments with one replicate in each experiment.

S. aureus ATCC 29213 [6] = assay type: cell-based, Staphylococcus aureus
Source text: as §1

S. aureus ATCC 43300 = assay type: cell-based, Staphylococcus aureus
Source text: as §1

rabbit red blood cells = assay: Hemolytic activity; assay type: cell-based; details: for Hemolysis: relative to Triton X-100
Method: Hemolytic activity was evaluated using defibrinated rabbit blood in a 96-well plate as described previously. A nonionic surfactant Triton X-100, which is capable of lysing red blood cells (RBCs), was used at 0.1% as a positive control. Briefly, rabbit blood (Hardy Diagnostics, Santa Maria, Calif.) was diluted with phosphate buffered saline (PBS; pH 7.2) at a 1:19 ratio (v/v) and free hemoglobin was removed by washing RBCs and centrifugation four times at 1,000×g at 4° C. for 5 min. Aliquots (50 μL) of washed RBCs were incubated with 150 μL two-fold dilutions of paenipeptin analogues at final concentrations of 16-128 μg/mL at 37° C. for 30 min in a microtiter plate (NBS, Corning Inc.). After incubation, treated RBCs were gently mixed by repeated pipetting. Aliquots (20 μL) of the cell suspension were mixed with 200 μL PBS in a new 96-well plate and centrifuged at 2,204×g for 10 min. The supernatant was transferred to a new 96-well plate for absorbance measurement at 415 nm using a Cell Imaging Multimode Reader (Cytation 3, BioTek; Winooski, Vt.). The percent hemolysis observed after exposure to each paenipeptin analogue was calculated relative to Triton X-100.

[7] = test system: methicillin-resistant S. aureus ATCC 43300; assay type: cell-based, Staphylococcus aureus; details: ATCC 43300
Method: as §4, §5

[8] = test system: Klebsiella pneumoniae ATCC 13883; assay type: cell-based; details: ATCC 13883
A. baumannii ATCC 19606 = assay type: cell-based, Acinetobacter baumannii
Source text: as §1

K. pneumoniae ATCC 13883 = assay type: cell-based, Klebsiella pneumoniae
Source text: as §1

E. faecium ATCC 19434 = assay type: cell-based, Enterococcus faecium
Source text: as §1

S. aureus ATCC 29213 [9] = assay type: cell-based, Staphylococcus aureus; details: ATCC 29213
Method: (§2) The impact of human serum on the antibacterial activity of selected paenipeptin analogues was determined using a procedure similar to that used for MIC determination as described above except that the microbiological medium was replaced by human serum (MP Biomedicals, Solon, Ohio). Paenipeptin analogues were two-fold diluted in 100% human serum and mixed with an equal volume of 90% serum containing approximately 1.5×10^5 CFU/mL of E. coli ATCC 25922 or S. aureus ATCC 29213. The final paenipeptin concentrations ranged from 0.5-64 μg/mL in 95% serum. The MIC in the presence of serum was then tested as described above.

E. coli ATCC 25922 = assay type: cell-based, Escherichia coli; details: ATCC 25922
Method: as §2

[10] = test system: Escherichia coli ATCC 25922; assay type: in vitro ADME
Method: To determine the stability of peptides in human serum, paenipeptin analogues were added into 100% human serum to a final concentration of 64 μg/ml. The mixtures were incubated at 37° C. and samples were withdrawn at 0, 6, 12 and 24 h. […] The residual antibacterial activity after incubation in human serum was compared to the non-treated control.

[11] = test system: Acinetobacter baumannii ATCC 19606; assay: MIC of antibiotics with or without paenipeptin analogues (potentiation); assay type: cell-based; details: A. baumannii ATCC 19606; for Sensitization factor (clarithromycin) / Sensitization factor (erythromycin): 4 μg/mL paenipeptin
Source text: (§3) Gram-negative bacteria, including Acinetobacter and Klebsiella, are intrinsically resistant to the hydrophobic antibiotic rifampicin.

[12] = test system: Klebsiella pneumoniae ATCC 13883; assay: as above; assay type: cell-based; details: K. pneumoniae ATCC 13883; for Sensitization factor (clarithromycin): 4 μg/mL paenipeptin
Source text: as §3

S. aureus ATCC 29213 [13] = details: cited from earlier work

Row | Molecule | MIC [1] [µg/mL] | MIC [2] [µg/mL] | Minimum inhibitory concentration [2] [µg/mL] | MIC [3] [µg/mL] | MIC [4] [µg/mL] | MIC [5] [µg/mL] | Minimum inhibitory concentration [5] [µg/mL] | MBC (P. aeruginosa ATCC 27853) [µg/mL] | MBC (S. aureus ATCC 29213 [6]) [µg/mL] | MBC (S. aureus ATCC 43300) [µg/mL] | Hemolysis (rabbit red blood cells; 16 μg/mL) [%] | Hemolysis (rabbit red blood cells; 32 μg/mL) [%] | Hemolysis (rabbit red blood cells; 64 μg/mL) [%] | Hemolysis (rabbit red blood cells; 128 μg/mL) [%] | MIC [7] [µg/mL] | MIC [8] [µg/mL] | Minimum inhibitory concentration (S. aureus ATCC 29213 [9]) [µg/mL] | Minimum inhibitory concentration (E. coli ATCC 25922) [µg/mL] | MIC after incubation in human serum at 37° C. ([10]; ATCC 25922, 0 h) [µg/mL] | MIC after incubation in human serum at 37° C. ([10]; ATCC 25922, 12 h) [µg/mL] | other results
1 | CCCCCCC(=O)N[C@@H](CCN)C(=O)N[C@H](C(=O)N[C@@H](CCN)C(=O)N[C@H](Cc1ccccc1)C(=O)N[C@@H](CC(C)C)C(=O)N[C@@H](CCN)C(=O)N[C@H](CC(C)C)C(=O)N[C@@H](CC(C)C)C(=O)N[C@@H](CO)C(N)=O)[C@@H](C)CC [Analogue 5] (Heptanoyl-[Dab]I[Dab][dF]L[Dab][dL]LS-NH2) | 8 to 16 | 1 to 4 | 1 to 4 | 2 to 4 | 8 to 16 | 16 to 32 | 16 to 32 | 8 to 16 | 16 to 32 | 16 to 32 | 0.96 ± 0.59 | 1.39 ± 0.55 | 4.86 ± 1.05 | 26.5 ± 4.45 |  |  |  |  |  |  | 
2 | CCCCCCC(=O)N[C@@H](CCN)C(=O)N[C@@H](Cc1ccccc1)C(=O)N[C@@H](CCN)C(=O)N[C@H](Cc1ccccc1)C(=O)N[C@@H](CC(C)C)C(=O)N[C@@H](CCN)C(=O)N[C@H](CC(C)C)C(=O)N[C@@H](CC(C)C)C(=O)N[C@@H](CO)C(N)=O [Analogue 6] (Heptanoyl-[Dab]F[Dab][dF]L[Dab][dL]LS-NH2) |  | 1 to 4 | 1 to 4 | 2 to 4 |  | 16 to 32 | 16 to 32 | 8 to 16 | 16 to 32 |  | 0.14 ± 0.20 | 0.39 ± 0.30 | 2.03 ± 0.44 | 8.34 ± 1.80 | 16 to 32 |  |  |  |  |  | 
3 | CCCCCCCC(=O)N[C@@H](CCN)C(=O)N[C@H](C(=O)N[C@@H](CCN)C(=O)N[C@H](Cc1ccccc1)C(=O)N[C@@H](CC(C)C)C(=O)N[C@@H](CCN)C(=O)N[C@@H](C(=O)N[C@@H](CC(C)C)C(=O)N[C@@H](CO)C(N)=O)C(C)C)[C@@H](C)CC [Analogue 8, C8-Pat] (Octanoyl-[Dab]I[Dab][dF]L[Dab][dV]LS-NH2) |  | 2 to 4 | 2 to 4 |  |  | 8 to 16 | 8 to 16 | 8 to 16 |  | 8 to 32 | 0.93 ± 0.45 | 1.91 ± 0.25 | 6.18 ± 2.48 | 25.3 ± 4.15 | 8 to 16 | 8 to 16 | 16 to 32 |  |  |  | MBC (A. baumannii ATCC 19606): 16 to 32 µg/mL; MBC (K. pneumoniae ATCC 13883): 8 to 16 µg/mL; MBC (E. faecium ATCC 19434): 16 to 32 µg/mL
4 | CCCCCCCC(=O)N[C@@H](CCN)C(=O)N[C@H](C(=O)N[C@@H](CCN)C(=O)N[C@H](Cc1ccccc1)C(=O)N[C@@H](CC(C)C)C(=O)N[C@@H](CCN)C(=O)N[C@@H](C(=O)N[C@@H](CC(C)C)C(=O)N[C@@H](CCN)C(N)=O)C(C)C)[C@@H](C)CC [Analogue 9] (Octanoyl-[Dab]I[Dab][dF]L[Dab][dV]L[Dab]-NH2) | ≥32 | 4 to 16 | 4 to 16 | 2 to 4 |  | >32 | >32 |  |  |  | 0.52 ± 0.58 | 0.80 ± 0.68 | 0.73 ± 0.50 | 2.25 ± 2.18 |  | >32 |  | 2 to 4 | 1 to 2 | 1 to 2 | hemolytic activity (in words) (rabbit red blood cells; 128 μg/mL): non-hemolytic; MIC of ampicillin in the presence of […] μg/ml paenipeptin analogue [11]: 1-2 μg/ml; MIC of erythromycin in the presence of […] μg/ml paenipeptin analogue [11]: 0.125-0.25 μg/ml; MIC of rifampicin at 2 μg/mL of paenipeptin analogue [11]: 0.0019 μg/ml; MIC of rifampicin at 4 μg/mL of paenipeptin analogue [11]: 0.00195 μg/ml; MIC of vancomycin in the presence of […] μg/ml paenipeptin analogue [11]: 0.25-0.5 μg/ml; Sensitization factor (clarithromycin) [11]: 4,096-8,192; Sensitization factor (erythromycin) [11]: 128-256; MIC of ampicillin in the presence of […] μg/ml paenipeptin analogue [12]: 32 μg/ml; MIC of clarithromycin in the presence of […] μg/ml paenipeptin analogue [12]: 0.0156 μg/ml; MIC of erythromycin in the presence of […] μg/ml paenipeptin analogue [12]: 0.0625 μg/ml; MIC of rifampicin at 4 μg/mL of paenipeptin analogue [12]: <0.00098-0.00195 μg/ml; MIC of vancomycin in the presence of […] μg/ml paenipeptin analogue [12]: 16 μg/ml; Sensitization factor (clarithromycin) [12]: 2,048
5 | CC[C@H](C)[C@H](NC(=O)[C@H](CCN)NC(=O)[C@@H](N)CC1CCCCC1)C(=O)N[C@@H](CCN)C(=O)N[C@H](Cc1ccccc1)C(=O)N[C@@H](CC(C)C)C(=O)N[C@@H](CCN)C(=O)N[C@@H](C(=O)N[C@@H](CC(C)C)C(=O)N[C@@H](CO)C(N)=O)C(C)C [Analogue 16] (H-[Cha][Dab]I[Dab][dF]L[Dab][dV]LS-NH2) | ≥32 | 4 to 8 | 4 to 8 | 2 to 8 | >32 | >32 | >32 | 16 to 32 |  |  | 0.55 ± 0.75 | 0.33 ± 0.83 | 0.65 ± 0.62 | 1.63 ± 0.40 |  |  | >64 | 2 (≈ 1.75 µM) | 1 to 2 | >32 | MIC after incubation in human serum at 37° C. [10]: > 32 µg/mL; MIC after incubation in human serum at 37° C. ([10]; ATCC 25922, 24 h): >32 µg/mL; hemolytic activity (in words) (rabbit red blood cells; 128 μg/mL): non-hemolytic; MIC of ampicillin in the presence of […] μg/ml paenipeptin analogue [11]: 8-16 μg/ml; MIC of clarithromycin in the presence of […] μg/ml paenipeptin analogue [11]: 0.0156 μg/ml; MIC of erythromycin in the presence of […] μg/ml paenipeptin analogue [11]: 0.5 μg/ml; MIC of rifampicin at 2 μg/mL of paenipeptin analogue [11]: 0.0039-0.0078 μg/ml; MIC of vancomycin in the presence of […] μg/ml paenipeptin analogue [11]: 0.5-1 μg/ml; Sensitization factor (clarithromycin) [11]: 2,048; Sensitization factor (erythromycin) [11]: 64; Sensitization factor (rifampicin) ([11]; MIC without / with 4 μg/mL paenipeptin): 4,096; MIC of ampicillin in the presence of […] μg/ml paenipeptin analogue [12]: 32 μg/ml; MIC of erythromycin in the presence of […] μg/ml paenipeptin analogue [12]: 0.0625 μg/ml; MIC of rifampicin at 2 μg/mL of paenipeptin analogue [12]: 0.0039 μg/ml; MIC of rifampicin at 4 μg/mL of paenipeptin analogue [12]: <0.00098-0.00195 μg/ml; MIC of vancomycin in the presence of […] μg/ml paenipeptin analogue [12]: >32 μg/ml; Sensitization factor (clarithromycin) [12]: 2,048-4,096
6 | MX-2401 |  |  |  |  |  |  |  |  |  |  |  |  |  |  |  |  |  |  |  |  | MIC (S. aureus ATCC 29213 [13]; 95% mouse serum): 128 µg/mL; MIC (S. aureus ATCC 29213 [13]; microbiological medium): 2 µg/mL
